# In the supplement of paper PMC9663587:
# Legend:
# Flavopiridol [1] = compound: T1, CN1CC[C@H](c2c(O)cc(O)c3c(=O)cc(-c4ccccc4Cl)oc23)[C@H](O)C1 [Flavopiridol]; test: GR value, 72 h; higher = faster growth (1 = untreated, <0 = killing);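 note: breast cancer and non-malignant breast epithelial lines, nine half-log doses, viable cells counted by Hoechst and LIVE/DEAD dye imaging versus time-zero plates and DMSO controls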
# Neratinib/HKI272 [2] = compound: T2, CCOc1cc2ncc(C#N)c(Nc3ccc(OCc4ccccn4)c(Cl)c3)c2cc1NC(=O)/C=C/CN(C)C [Neratinib/HKI272]; test: as above
# [3] = compound: CCc1cnn2c(NCc3ccc[n+]([O-])c3)cc(N3CCCC[C@H]3CCO)nc12; test: increase in dead-cell fraction, 72 h; higher = more death;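 note: breast cancer cell lines in 384-well plates, stained with Hoechst plus LIVE/DEAD far red dye and imaged, cells above an LDR intensity threshold counted dead, Hoechst-negative corpses included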
# LEE011/Ribociclib = compound: CN(C)C(=O)c1cc2cnc(Nc3ccc(N4CCNCC4)cn3)nc2n1C1CCCC1 [LEE011/Ribociclib]; test: as above
# THZ1 = compound: CN(C)C/C=C/C(=O)Nc1ccc(C(=O)Nc2cccc(Nc3ncc(Cl)c(-c4c[nH]c5ccccc45)n3)c2)cc1 [THZ1]; test: as above
# [4] = compound: CC(=O)c1c(C)c2cnc(Nc3ccc(N4CCNCC4)cn3)nc2n(C2CCCC2)c1=O; test: as above
# YKL-5-124 = compound: C=CC(=O)Nc1ccc(C(=O)Nc2[nH]nc3c2CN(C(=O)N[C@H](CN(C)C)c2ccccc2)C3(C)C)cc1 [YKL-5-124]; test: as above
# [5] = compound: CCN1CCN(Cc2ccc(Nc3ncc(F)c(-c4cc(F)c5nc(C)n(C(C)C)c5c4)n3)nc2)CC1; test: as above
# Flavopiridol [6] = compound: T1, Flavopiridol; test: as above
# BSJ-03-123 = compound: CC(=O)c1c(C)c2cnc(Nc3ccc(N4CCN(CCOCCOCCOCCNC(=O)COc5cccc6c5C(=O)N(C5CCC(=O)NC5=O)C6=O)CC4)cn3)nc2n(C2CCCC2)c1=O [BSJ-03-123]; test: as above
# Neratinib/HKI272 [7] = compound: T2, Neratinib/HKI272; test: as above
# THZ531 = compound: CN(C)C/C=C/C(=O)Nc1ccc(C(=O)N2CCC[C@@H](Nc3ncc(Cl)c(-c4c[nH]c5ccccc45)n3)C2)cc1 [THZ531]; test: as above
cell line,measurement,setting,value
ZR7530,GR value,Flavopiridol [1]; 0.0001 µM,1.03 GR
same,GR value,Flavopiridol [1]; 0.0003162 µM,1.14 GR
same,GR value,Flavopiridol [1]; 0.001 µM,1.04 GR
same,GR value,Flavopiridol [1]; 0.003162 µM,0.795 GR
same,GR value,Flavopiridol [1]; 0.01 µM,0.93 GR
same,GR value,Flavopiridol [1]; 0.03162 µM,1.13 GR
same,GR value,Flavopiridol [1]; 0.1 µM,0.766 GR
same,GR value,Flavopiridol [1]; 0.3162 µM,0.119 GR
same,GR value,Flavopiridol [1]; 1 µM,-0.662 GR
same,GR value,Neratinib/HKI272 [2]; 0.0003162 µM,0.699 GR
same,GR value,Neratinib/HKI272 [2]; 0.001 µM,0.374 GR
same,GR value,Neratinib/HKI272 [2]; 0.003162 µM,0.0338 GR
same,GR value,Neratinib/HKI272 [2]; 0.01 µM,-0.0663 GR
same,GR value,Neratinib/HKI272 [2]; 0.03162 µM,-0.199 GR
same,GR value,Neratinib/HKI272 [2]; 0.1 µM,-0.22 GR
same,GR value,Neratinib/HKI272 [2]; 0.3162 µM,-0.262 GR
same,GR value,Neratinib/HKI272 [2]; 1 µM,-0.411 GR
same,GR value,Neratinib/HKI272 [2]; 3.162 µM,-0.497 GR
same,increase in dead-cell fraction,[3]; 0.0001 µM,-0.0019
same,increase in dead-cell fraction,[3]; 0.0003162 µM,0.0016
same,increase in dead-cell fraction,[3]; 0.001 µM,-0.02
same,increase in dead-cell fraction,[3]; 0.003162 µM,0.0075
same,increase in dead-cell fraction,[3]; 0.01 µM,-0.0026
same,increase in dead-cell fraction,[3]; 0.03162 µM,0.0388
same,increase in dead-cell fraction,[3]; 0.1 µM,0.103
same,increase in dead-cell fraction,[3]; 0.3162 µM,0.138
same,increase in dead-cell fraction,[3]; 1 µM,0.131
same,increase in dead-cell fraction,LEE011/Ribociclib; 0.001 µM,0.0122
same,increase in dead-cell fraction,LEE011/Ribociclib; 0.003162 µM,0.0504
same,increase in dead-cell fraction,LEE011/Ribociclib; 0.01 µM,0.0152
same,increase in dead-cell fraction,LEE011/Ribociclib; 0.03162 µM,0.0426
same,increase in dead-cell fraction,LEE011/Ribociclib; 0.1 µM,0.0177
same,increase in dead-cell fraction,LEE011/Ribociclib; 0.3162 µM,0.0519
same,increase in dead-cell fraction,LEE011/Ribociclib; 1 µM,0.0531
same,increase in dead-cell fraction,LEE011/Ribociclib; 3.162 µM,0.0382
same,increase in dead-cell fraction,LEE011/Ribociclib; 10 µM,0.0703
same,increase in dead-cell fraction,THZ1; 0.0001 µM,0.0034
same,increase in dead-cell fraction,THZ1; 0.0003162 µM,0.0045
same,increase in dead-cell fraction,THZ1; 0.001 µM,0
same,increase in dead-cell fraction,THZ1; 0.003162 µM,-0.0128
same,increase in dead-cell fraction,THZ1; 0.01 µM,0.0019
same,increase in dead-cell fraction,THZ1; 0.03162 µM,0.0253
same,increase in dead-cell fraction,THZ1; 0.1 µM,0.0921
same,increase in dead-cell fraction,THZ1; 0.3162 µM,0.097
same,increase in dead-cell fraction,THZ1; 1 µM,0.229
same,increase in dead-cell fraction,[4]; 0.0003162 µM,0.0003
same,increase in dead-cell fraction,[4]; 0.001 µM,-0.0021
same,increase in dead-cell fraction,[4]; 0.003162 µM,0.0019
same,increase in dead-cell fraction,[4]; 0.01 µM,-0.0031
same,increase in dead-cell fraction,[4]; 0.03162 µM,0.0102
same,increase in dead-cell fraction,[4]; 0.1 µM,0.0763
same,increase in dead-cell fraction,[4]; 0.3162 µM,0.0662
same,increase in dead-cell fraction,[4]; 1 µM,0.0375
same,increase in dead-cell fraction,[4]; 3.162 µM,0.0348
same,increase in dead-cell fraction,YKL-5-124; 0.001 µM,0.039
same,increase in dead-cell fraction,YKL-5-124; 0.003162 µM,0.0535
same,increase in dead-cell fraction,YKL-5-124; 0.01 µM,0.0595
same,increase in dead-cell fraction,YKL-5-124; 0.03162 µM,0.0181
same,increase in dead-cell fraction,YKL-5-124; 0.1 µM,0.0418
same,increase in dead-cell fraction,YKL-5-124; 0.3162 µM,0.04
same,increase in dead-cell fraction,YKL-5-124; 1 µM,0.0587
same,increase in dead-cell fraction,YKL-5-124; 3.162 µM,0.0125
same,increase in dead-cell fraction,YKL-5-124; 10 µM,0.105
same,increase in dead-cell fraction,[5]; 0.001 µM,0.0055
same,increase in dead-cell fraction,[5]; 0.003162 µM,-0.0075
same,increase in dead-cell fraction,[5]; 0.01 µM,0.0272
same,increase in dead-cell fraction,[5]; 0.03162 µM,0.0826
same,increase in dead-cell fraction,[5]; 0.1 µM,0.0398
same,increase in dead-cell fraction,[5]; 0.3162 µM,0.0332
same,increase in dead-cell fraction,[5]; 1 µM,0.0706
same,increase in dead-cell fraction,[5]; 3.162 µM,0.0448
same,increase in dead-cell fraction,[5]; 10 µM,0.0361
same,increase in dead-cell fraction,Flavopiridol [6]; 0.0001 µM,-0.0012
same,increase in dead-cell fraction,Flavopiridol [6]; 0.0003162 µM,0.0085
same,increase in dead-cell fraction,Flavopiridol [6]; 0.001 µM,-0.0127
same,increase in dead-cell fraction,Flavopiridol [6]; 0.003162 µM,-0.0029
same,increase in dead-cell fraction,Flavopiridol [6]; 0.01 µM,0.0104
same,increase in dead-cell fraction,Flavopiridol [6]; 0.03162 µM,0.0159
same,increase in dead-cell fraction,Flavopiridol [6]; 0.1 µM,0.0202
same,increase in dead-cell fraction,Flavopiridol [6]; 0.3162 µM,-0.0023
same,increase in dead-cell fraction,Flavopiridol [6]; 1 µM,0.191
same,increase in dead-cell fraction,BSJ-03-123; 0.001 µM,0.0025
same,increase in dead-cell fraction,BSJ-03-123; 0.003162 µM,0.0062
same,increase in dead-cell fraction,BSJ-03-123; 0.01 µM,0.0113
same,increase in dead-cell fraction,BSJ-03-123; 0.03162 µM,0.0285
same,increase in dead-cell fraction,BSJ-03-123; 0.1 µM,0.002
same,increase in dead-cell fraction,BSJ-03-123; 0.3162 µM,0.0395
same,increase in dead-cell fraction,BSJ-03-123; 1 µM,0.0336
same,increase in dead-cell fraction,BSJ-03-123; 3.162 µM,0.0895
same,increase in dead-cell fraction,BSJ-03-123; 10 µM,0.039
same,increase in dead-cell fraction,Neratinib/HKI272 [7]; 0.0003162 µM,0.0037
same,increase in dead-cell fraction,Neratinib/HKI272 [7]; 0.001 µM,-0.0057
same,increase in dead-cell fraction,Neratinib/HKI272 [7]; 0.003162 µM,-0.0122
same,increase in dead-cell fraction,Neratinib/HKI272 [7]; 0.01 µM,-0.0066
same,increase in dead-cell fraction,Neratinib/HKI272 [7]; 0.03162 µM,0.0011
same,increase in dead-cell fraction,Neratinib/HKI272 [7]; 0.1 µM,0.0186
same,increase in dead-cell fraction,Neratinib/HKI272 [7]; 0.3162 µM,0.0145
same,increase in dead-cell fraction,Neratinib/HKI272 [7]; 1 µM,0.025
same,increase in dead-cell fraction,Neratinib/HKI272 [7]; 3.162 µM,0.0495
same,increase in dead-cell fraction,THZ531; 0.0001 µM,0.0074
same,increase in dead-cell fraction,THZ531; 0.0003162 µM,0.0167
same,increase in dead-cell fraction,THZ531; 0.001 µM,0.0003
same,increase in dead-cell fraction,THZ531; 0.003162 µM,0.0105
same,increase in dead-cell fraction,THZ531; 0.01 µM,-0.0154
same,increase in dead-cell fraction,THZ531; 0.03162 µM,-0.0168
same,increase in dead-cell fraction,THZ531; 0.1 µM,0.129
same,increase in dead-cell fraction,THZ531; 0.3162 µM,0.234
same,increase in dead-cell fraction,THZ531; 1 µM,0.0722
